The record followed here is PMC10247784, “Physiological activation of human and mouse bitter taste receptors by bile acids” (Communications Biology, 2023).

Where “and” joins values, the source holds several entries; their conditions need not be identical. Identical values can stand only once.

Holding throughout (assay type): cell-based
One assay has as its target T1, human TAS2R4 (Homo sapiens, UniProt Q9NYW5).
T1 construct: expressed in transfected cells; host or cells: HEK293T-Gα16gust44
T1 sequence (Q9NYW5 1-299): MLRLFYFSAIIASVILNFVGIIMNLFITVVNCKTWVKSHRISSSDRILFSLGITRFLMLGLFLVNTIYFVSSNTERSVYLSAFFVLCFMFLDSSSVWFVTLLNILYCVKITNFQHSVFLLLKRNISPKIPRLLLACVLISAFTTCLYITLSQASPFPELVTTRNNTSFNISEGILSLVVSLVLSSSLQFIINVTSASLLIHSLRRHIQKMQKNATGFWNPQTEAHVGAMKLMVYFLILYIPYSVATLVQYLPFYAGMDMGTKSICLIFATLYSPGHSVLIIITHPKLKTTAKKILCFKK
The assay can be described thus: Calcium imaging assay (FLIPR), HEK293T-Gα16gust44 cells transfected with human TAS2R4. Conditions: TAS2R4, positive control at 3 mM. The method, then:
(§1) This set of bile acids was chosen because of their commercial availability in high purities, their diversity within the class of bile acids and their previous detection and quantitation in human blood. Stock solutions were prepared in DMSO.
(§2) As basal growth medium for the HEK293T-Gα16gust44 cell line[17],[59] served Dulbecco’s modified eagle medium (DMEM) (Thermo Fisher Scientific, Darmstadt, Germany) supplemented with 10 % fetal bovine serum (Sigma-Aldrich, Steinheim, Germany), 2 mM L-glutamine (Sigma-Aldrich, Steinheim, Germany), 100 units/ml penicillin (Sigma Aldrich, Steinheim, Germany) and 100 µg/ml streptomycin (Sigma Aldrich, Steinheim, Germany). Growth conditions were 37 °C, 5 % CO2 and saturated air-humidity[60].
(§3) HEK293T-Gα16gust44 cells were seeded on poly-D-lysine (10 µg/ml) coated 96-well plates to reach a confluence of 40-60 % the next day. For transient transfection 150 ng of plasmid DNA containing the receptor of interest and 0.3 µl lipofectamine 2000 (Thermo Fisher Scientific, Darmstadt, Germany) per well were used and transfection took place according to the manual of lipofectamine 2000. […] The empty vector DNA (mock) was transfected as negative control[14],[41].
(§4) Cells were loaded using the calcium-sensitive fluorescent dye Fluo-4-AM (Abcam, Cambridge, Great Britain) in the presence of 2.5 mM probenecid (Sigma-Aldrich, Steinheim, Germany) the day after transfection[13],[41]. 1 h after loading, cells were washed with C1 buffer using a BioTek Cell Washer, incubated in the dark for half an hour and washed again. For automated agonist application and measurement of fluorescence changes, a FLIPR^TETRA device (Molecular Devices, San José, United States) was used. Viability of cells was tested by application of 100 nM Somatostatin 14 (Bachem, Bubendorf, Switzerland)[42].
(§5) Measured data were negative control corrected by subtracting the signal of the mock-transfected cells and exported to Microsoft Excel using the FLIPR software ScreenWorks 4.2. In Microsoft Excel software, standardization of maximum fluorescence intensities to the basal fluorescence and normalization to the buffer-only control was done to calculate the relative fluorescence changes (ΔF/F).
(§6) Initial screening experiments performed in duplicate wells were confirmed by at least one replication and representative traces were selected for display. All dose-response relationships were determined by three independent experiments (biological replicates) performed in duplicates (technical replicates). Threshold concentrations, defined as lowest substance concentrations leading to statistically significant elevated fluorescence changes in receptor-transfected cells compared with empty vector-transfected cells, were determined using SigmaPlot with Student’s t-test to evaluate statistical significance (p < 0.01).

A further assay addresses T2, human TAS2R46 (Homo sapiens, UniProt P59540).
T2 construct: expressed in transfected cells; host or cells: HEK293T-Gα16gust44
T2 sequence (P59540 1-309): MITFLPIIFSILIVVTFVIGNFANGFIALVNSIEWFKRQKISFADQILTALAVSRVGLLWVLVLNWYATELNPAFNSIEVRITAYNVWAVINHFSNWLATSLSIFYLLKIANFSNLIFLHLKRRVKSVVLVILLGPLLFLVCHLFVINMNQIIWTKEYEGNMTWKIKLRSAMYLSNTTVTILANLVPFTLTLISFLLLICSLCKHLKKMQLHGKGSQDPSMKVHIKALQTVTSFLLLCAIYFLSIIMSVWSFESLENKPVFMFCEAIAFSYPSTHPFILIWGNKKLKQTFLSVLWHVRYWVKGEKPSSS
The assay can be described thus: Calcium imaging assay (FLIPR), HEK293T-Gα16gust44 cells transfected with human TAS2R46. Conditions: TAS2R46, positive control at 10 µM. How it is done:
as §1, §2, §3, §4, §5, §6

The next assay has as its target T3, human TAS2R14 (Homo sapiens, UniProt Q9NYV8).
T3 construct: expressed in transfected cells; host or cells: HEK293T-Gα16gust44
T3 sequence (Q9NYV8 1-317): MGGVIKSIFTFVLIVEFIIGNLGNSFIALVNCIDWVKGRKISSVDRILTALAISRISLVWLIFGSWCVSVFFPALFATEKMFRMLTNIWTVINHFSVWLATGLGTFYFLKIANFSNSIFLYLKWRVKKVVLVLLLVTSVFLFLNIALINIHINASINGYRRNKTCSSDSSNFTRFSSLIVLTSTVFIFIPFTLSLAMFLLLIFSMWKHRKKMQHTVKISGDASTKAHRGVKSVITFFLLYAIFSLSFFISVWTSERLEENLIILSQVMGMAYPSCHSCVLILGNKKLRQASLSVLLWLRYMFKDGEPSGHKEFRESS
The assay can be described thus: Calcium imaging assay (FLIPR), HEK293T-Gα16gust44 cells transfected with human TAS2R14. The method, then:
as §1, §2, §3, §4, §5, §6

A further assay has as its target T4, human TAS2R39 (Homo sapiens, UniProt P59534).
T4 construct: expressed in transfected cells; host or cells: HEK293T-Gα16gust44
T4 sequence (P59534 1-338): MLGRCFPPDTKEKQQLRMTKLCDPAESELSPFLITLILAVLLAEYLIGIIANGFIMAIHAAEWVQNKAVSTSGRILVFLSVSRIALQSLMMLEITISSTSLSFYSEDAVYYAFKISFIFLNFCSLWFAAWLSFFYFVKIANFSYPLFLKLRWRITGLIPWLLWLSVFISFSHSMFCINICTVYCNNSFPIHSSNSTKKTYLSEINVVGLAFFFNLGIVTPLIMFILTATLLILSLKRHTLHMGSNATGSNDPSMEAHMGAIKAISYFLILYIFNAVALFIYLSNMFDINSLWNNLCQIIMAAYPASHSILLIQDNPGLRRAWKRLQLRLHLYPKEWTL
Kind of assay: Calcium imaging assay (FLIPR), HEK293T-Gα16gust44 cells transfected with human TAS2R39. Conditions: TAS2R39, positive control at 3 mM. The method, then:
as §1, §2, §3, §4, §5, §6

The target in another assay is T5, human TAS2R1 (Homo sapiens, UniProt Q9NYW7).
T5 construct: expressed in transfected cells; host or cells: HEK293T-Gα16gust44
T5 sequence (Q9NYW7 1-299): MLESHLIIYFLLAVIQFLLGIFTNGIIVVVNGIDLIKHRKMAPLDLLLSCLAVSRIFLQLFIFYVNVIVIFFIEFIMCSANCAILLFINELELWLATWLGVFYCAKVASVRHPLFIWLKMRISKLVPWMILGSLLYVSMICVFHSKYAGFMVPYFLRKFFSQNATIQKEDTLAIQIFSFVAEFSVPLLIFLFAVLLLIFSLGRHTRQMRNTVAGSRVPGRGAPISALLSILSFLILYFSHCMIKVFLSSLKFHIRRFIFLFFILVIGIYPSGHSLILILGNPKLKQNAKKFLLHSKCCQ
The assay can be described thus: Calcium imaging assay (FLIPR), HEK293T-Gα16gust44 cells transfected with human TAS2R1. To be noted: TAS2R1, positive control at 1 mM. How it is done: as §1, §2, §3, §4, §5, §6

Turning to `COc1cc2c(c(OC)c1OC)-c1ccc(OC)c(=O)cc1[C@@H](NC(C)=O)CC2` [Colchicin], the “Efficacy = maximal amplitude (ΔF/F)” value on human TAS2R4 (mean) came out at 0.02059. In addition, the “Efficacy (maximal amplitude ΔF/F), individual data points” value (shortened to “Efficacy (maximal amplitude ΔF/F)”) on human TAS2R4 (single replicates) was 0.02499 and 0.02039 and 0.01223. Consider `O=C1C[C@@H]2OCC=C3CN4CC[C@]56c7ccccc7N1[C@H]5[C@H]2[C@H]3C[C@H]46` [strychnine, reference compound], for which, on human TAS2R46 (mean), the “Efficacy = maximal amplitude (ΔF/F)” value turned out to be 0.2373. As to `COc1cccc2c1cc([N+](=O)[O-])c1c(C(=O)O)cc3c(c12)OCO3` [aristolochic acid, reference compound], the “Efficacy = maximal amplitude (ΔF/F)” value on human TAS2R14 (TAS2R14, positive control at 10 µM, mean) turned out to be 0.4945. In addition, on human TAS2R14 (TAS2R14, positive control at 10 µM, single replicates), the “Efficacy (maximal amplitude ΔF/F)” value is 0.6939 and 0.4242 and 0.3654. Further, the “Efficacy (signal amplitude) versus control stimulus, TAS2R14” value on human TAS2R14 (highest applied concentrations, control 10 µM aristolochic acid) is reported as “about twice as high as the most effective bile acids”.

In the case of `CC[N+](CC)(CC(=O)Nc1c(C)cccc1C)Cc1ccccc1` [denatonium benzoate, reference compound], on human TAS2R39 (mean), the “Efficacy = maximal amplitude (ΔF/F)” value was determined as 0.08257. Moreover, the “Efficacy (maximal amplitude ΔF/F)” value on human TAS2R39 (single replicates) is 0.09973 and 0.06456 and 0.07602. In the case of `O=C1C[C@@H]2OCC=C3CN4CC[C@]56c7ccccc7N1[C@H]5[C@H]2[C@H]3C[C@H]46` [Strychnin], the “Efficacy (maximal amplitude ΔF/F)” value at human TAS2R46 (single replicates) was 0.1901 and 0.2368 and 0.2851. Turning to `C=C(C)[C@@H]1[C@H]2OC(=O)[C@@H]1[C@]1(O)C[C@H]3O[C@]34C(=O)O[C@H]2[C@]14C` [picrotoxinin, reference compound], the “Efficacy = maximal amplitude (ΔF/F)” value at human TAS2R1 (mean) is 0.1084. In addition, on human TAS2R1 (single replicates), the “Efficacy (maximal amplitude ΔF/F)” value is 0.08063 and 0.1121 and 0.1325.
